Test results as given in patent publication US6403600B1, “Methoximinophenylacetic acid amides” (Bayer Aktiengesellschaft, priority 1998, dated 2002).

Assay: logP determination by HPLC (EEC-Directive 79/831 Annex V. A8)
Format: physicochemical
Details: gradient method, acetonitrile/0.1% aqueous phosphoric acid

Structure (SMILES)	logP	chromatographic logP
CON=C(C(=O)N(C)Sc1ccc(Cl)cc1)c1ccccc1COc1ccccc1C [Example 20]	5.53	
CCOCN(C)C(=O)C(=NOC)c1ccccc1COc1ccccc1C [Example 19]	4.02	
CON=C(C(=O)N(C)SC(F)(Cl)Cl)c1ccccc1COc1ccccc1C [Example 5]	5.35	
CON=C(C(=O)N(C)SC(F)(Cl)Cl)c1ccccc1CON=C(C)c1ccc(OC)c(OC)c1 [Example 79]	4.7	
CON=C(C(=O)N(C)SC(F)(Cl)Cl)c1ccccc1Oc1ncnc(Oc2ccccc2OC(F)F)c1F [Example 94]	4.7	
CON=C(C(=O)N(C)SC(F)(Cl)Cl)c1ccccc1Oc1ncnc(Oc2ccccc2C(C)C)c1F [Example 123]	5.56	
CON=C(C(=O)N(C)Sc1ccc(Cl)c(C(F)(F)F)c1)c1ccccc1COc1ccccc1C [Example 25]	5.8	
CCSC(=O)N(C)C(=O)C(=NOC)c1ccccc1COc1ccccc1C [Example 27]	4.91	
CON=C(C(=O)N(C)SC(F)(Cl)Cl)c1ccccc1Oc1ncnc(Oc2ccc(C)cc2)c1F [Example 120]	5.02	
CON=C(C(=O)N(C)SC(F)(Cl)Cl)c1ccccc1Oc1ncnc(Oc2ccc(C#N)cc2)c1F [Example 107]	4.34	
CON=C(C(=O)N(C)SC(F)(Cl)Cl)c1ccccc1Oc1ncnc(Oc2ccccc2)c1F [Example 88]	4.76	
CON=C(C(=O)N(C)C(=O)OCC(C)C)c1ccccc1COc1ccccc1C [Example 14]	5.21	
CON=C(C(=O)N(C)SC(F)(Cl)Cl)c1ccccc1Oc1ncnc(Oc2ccc(OC)cc2)c1F [Example 108]	4.63	
CCCCOP(=O)(OC)N(C)C(=O)C(=NOC)c1ccccc1COc1ccccc1C (centres unmarked) [Example 15]	4.53	
CON=C(C(=O)N(C)SC(F)(Cl)Cl)c1ccccc1Oc1ncnc(Oc2ccc(C(F)(F)F)cc2OC)c1F [Example 112]	5.16	
CCOc1ccccc1Oc1ncnc(Oc2ccccc2C(=NOC)C(=O)N(C)SC(F)(Cl)Cl)c1F [Example 110]	4.86	
CON=C(C(=O)N(C)SC(Cl)(Cl)Cl)c1ccccc1COc1ccccc1C [Example 6]	5.56	
CON=C(C(=O)N(C)SC(F)(F)F)c1ccccc1CON=C(C)c1cccc(F)c1 [Example 84]	4.97	
CON=C(C(=O)N(SC(F)(F)F)C1CC1)c1ccccc1COc1ccccc1C [Example 61]	5.17	
CON=C(C(=O)N(C)SC(=O)OC)c1ccccc1CON=C(C)c1cccc(C(F)(F)F)c1 [Example 40]	4.75	
CCOC(=O)N(C)C(=O)C(=NOC)c1ccccc1COc1ccccc1C [Example 12]	4.46	
CON=C(C(=O)N(C)SC(F)(F)F)c1ccccc1COc1cc(C)ccc1C [Example 68]	5.25	
CON=C(C(=O)N(C)SC(F)(Cl)Cl)c1ccccc1Oc1ncnc(Oc2cc(C)ccc2C)c1F [Example 121]	5.34	
CON=C(C(=O)N(C)C(=O)C(=O)OC)c1ccccc1COc1ccccc1C [Example 26]	3.96	
CCCCN(CCCC)SN(C)C(=O)C(=NOC)c1ccccc1COc1ccccc1C [Example 9]	6.83	
CON=C(C(=O)N(C)SC(F)(Cl)Cl)c1ccccc1Oc1ncnc(Oc2ccccc2OC)c1F [Example 129]	4.57	

Structure (SMILES)	logP	chromatographic logP
CON=C(C(=O)N(C)C(=O)OCCBr)c1ccccc1COc1ccccc1C [Example 37]	4.6	
CON=C(C(=O)N(C)SC(F)(F)F)c1ccccc1CON=C(C)c1cccc(Cl)c1 [Example 78]	5.39	
CCS(=O)(=O)N(C)C(=O)N(C)C(=O)C(=NOC)c1ccccc1COc1ccccc1C [Example 35]	4.05	
CNC(=O)N(C)C(=O)C(=NOC)c1ccccc1COc1ccccc1C [Example 31]	3.29	
CON=C(C(=O)N(C)SC(F)(Cl)Cl)c1ccccc1Oc1ncnc(Oc2cccc(C(F)(F)F)c2)c1F [Example 106]	5.11	
CON=C(C(=O)N(C)SC(F)(Cl)Cl)c1ccccc1Oc1ncnc(Oc2cccc(C=O)c2Cl)c1F [Example 87]	4.72	
CON=C(C(=O)N(C)C(=O)N1CCOCC1)c1ccccc1COc1ccccc1C [Example 36]	3.32	
CON=C(C(=O)N(C)SC(F)(Cl)Cl)c1ccccc1Oc1ncnc(Oc2ccc(OC(F)(F)F)cc2C)c1F [Example 138]	5.65	
CCc1cc(C)cc(Oc2ncnc(Oc3ccccc3C(=NOC)C(=O)N(C)SC(F)(Cl)Cl)c2F)c1 [Example 137]	5.76	
CON=C(C(=O)N(C)SC(F)(Cl)Cl)c1ccccc1Oc1ncnc(Oc2cccc(C(F)(F)F)c2Cl)c1F [Example 126]	5.42	
CON=C(C(=O)N(C)C#N)c1ccccc1COc1ccccc1C [Example 10]	3.67	
CON=C(C(=O)N(C)SC(F)(Cl)Cl)c1ccccc1Oc1ncnc(Oc2ccc(C)cc2C)c1F [Example 90]	5.41	
CON=C(C(=O)N(C)SC(F)(Cl)Cl)c1ccccc1Oc1ncnc(Oc2cccc(Br)c2)c1F [Example 101]	5.39	
CON=C(C(=O)N(C)SC(F)(Cl)Cl)c1ccccc1OC(=O)c1c(F)cccc1F [Example 144]	4.41	
CON=C(C(=O)N(C)Sc1ccccc1)c1ccccc1CON=C(C)c1cccc(C(F)(F)F)c1 [Example 72]	5.48	
CCSN(C)C(=O)C(=NOC)c1ccccc1COc1ccccc1C [Example 52]	4.55	
CON=C(C(=O)N(C)C(=O)OC)c1ccccc1COc1ccccc1C [Example 33]	4.11	
CON=C(C(=O)N(C)SC(F)(Cl)Cl)c1ccccc1Oc1ncnc(Oc2ccc(SC(F)(F)F)cc2)c1F [Example 139]	5.6	
CON=C(C(=O)N(C)SC(F)(Cl)Cl)c1ccccc1Oc1ncnc(Oc2cccc(C(C)(C)C)c2)c1F [Example 132]	5.84	
CCOCN(C)C(=O)C(=NOC)c1ccccc1Oc1ccccc1 [Example 42]	3.36	
CCN(SC(F)(F)F)C(=O)C(=NOC)c1ccccc1COc1ccccc1C [Example 62]	5.3	
CON=C(C(=O)N(C)SC(F)(Cl)Cl)c1ccccc1Oc1ncnc(Oc2cccc(F)c2)c1F [Example 118]	4.76	
CON=C(C(=O)N(C)SC(F)(Cl)Cl)c1ccccc1OC [Example 146]	3.69	
CON=C(C(=O)N(C)Sc1ccccc1)c1ccccc1COc1ccccc1C [Example 21]	5.11	
CCSN(C)C(=O)C(=NOC)c1ccccc1CON=C(C)c1cccc(C(F)(F)F)c1 [Example 73]	5.02	
CON=C(C(=O)N(C)SC(F)(Cl)Cl)c1ccccc1Oc1ncnc(Oc2cccc(C)c2C)c1F [Example 92]	5.34	

Structure (SMILES)	logP	chromatographic logP
CON=C(C(=O)N(C)Sc1ccc(OC)cc1)c1ccccc1Oc1ccccc1 [Example 48]	4.31	
CON=C(C(=O)N(C)Sc1cccc(C(F)(F)F)c1)c1ccccc1COc1ccccc1C [Example 22]	5.5	
CCN(SC(F)(Cl)Cl)C(=O)C(=NOC)c1ccccc1COc1ccccc1C [Example 53]	5.74	
CON=C(C(=O)N(C)SC(C)(F)F)c1ccccc1COc1ccccc1C [Example 57]	4.62	
CCc1ccc(Oc2ncnc(Oc3ccccc3C(=NOC)C(=O)N(C)SC(F)(Cl)Cl)c2F)cc1 [Example 131]	5.38	
CON=C(C(=O)N(C)SC(F)(Cl)Cl)c1ccccc1Oc1ncnc(OC)c1F [Example 145]	5.45	
CON=C(C(=O)N(C)SC(F)(Cl)Cl)c1ccccc1Oc1ncnc(Oc2cccc(Cl)c2Cl)c1F [Example 91]	5.46	
CON=C(C(=O)N(C)SC(F)(Cl)Cl)c1ccccc1Oc1ccccc1 [Example 47]	4.75	
CON=C(C(=O)N(C)SC(F)(Cl)Cl)c1ccccc1CON=C(C)c1cccc(Cl)c1 [Example 77]	5.79	
CON=C(C(=O)N(C)SC(F)(Cl)Cl)c1ccccc1Oc1ncnc(Oc2ccccc2C)c1F [Example 89]	5.05	
CON=C(C(=O)N(C)SC(F)(Cl)Cl)c1ccccc1COc1cccc(-c2ccccc2)c1 [Example 65]	5.77	
CON=C(C(=O)N(C)C(=O)N(C)SC(F)(F)F)c1ccccc1COc1ccccc1C [Example 59]	4.75	
CON=C(C(=O)N(C)SC(F)(Cl)Cl)c1ccccc1Oc1ncnc(Oc2ccccc2Br)c1F [Example 2, 2-{2-[6-(2-bromo-phenoxy)-5-fluoro-pyrimidin-4-yloxy]-phenyl}-N-(dichlorofluoro-methyl-sulphanyl)-2-methoxyimino-N-methylacetamide]		5.1
CON=C(C(=O)N(C)SC(F)(Cl)Cl)c1ccccc1COc1cc(C)ccc1C [Example 67]	5.68	
CON=C(C(=O)N(C)SC(F)(F)F)c1ccccc1COc1cc(F)ccc1F [Example 70]	4.48	
CON=C(C(=O)N(C)Sc1ccc(OC)cc1)c1ccccc1COc1ccccc1C [Example 11]	4.98	
CON=C(C(=O)N(C)SC(F)(Cl)Cl)c1ccccc1Oc1ncnc(Oc2cc(C)ccc2C(C)C)c1F [Example 124]	5.88	
CON=C(C(=O)N(C)SC(F)(Cl)Cl)c1ccccc1Oc1ncnc(Oc2c(C)cccc2C)c1F [Example 97]	5.4	
CON=C(C(=O)N(C)SC(F)(Cl)Cl)c1ccccc1Oc1ncnc(Oc2ccc(OC(F)(F)F)cc2Cl)c1F [Example 99]	5.08	
CON=C(C(=O)N(C)C(=O)N(C)C)c1ccccc1COc1ccccc1C [Example 17]	3.38	
CON=C(C(=O)N(C)SC(=O)OC)c1ccccc1CON=C(C)c1ccc(OC)c(OC)c1 [Example 82]	3.7	
CON=C(C(=O)N(C)C(=O)N(C)SC(F)(F)F)c1ccccc1CON=C(C)c1cccc(C(F)(F)F)c1 [Example 76]	5.22	
CON=C(C(=O)N(C)SC(F)(Cl)Cl)c1ccccc1Oc1ncnc(Oc2ccc(F)cc2Cl)c1F [Example 114]	5.14	
CON=C(C(=O)N(C)SC(=O)OC)c1ccccc1COc1ccccc1C [Example 1, 2-methoximino-2-[2-(methylphenoxy)-methylphenyl]-N-methyl-N-methoxycarbonylthio-acetamide]		4.25
CCOC(=O)N(C)C(=O)C(=NOC)c1ccccc1Oc1ccccc1 [Example 41]	3.59	
